From article PMC5224920, “Assessing the mechanism and therapeutic potential of modulators of the human Mediator complex-associated protein kinases” (eLife, 2016)

Test system: 12 single or co-culture in vitro tissue models of primary cells
Assay: Culture/co-culture cell model panel, extracellular biomarkers (DiscoveRx); on CCL2/MCP-1: reference of the scale not given here; on CD141/Thrombomodulin: reference of the scale not given here; on CD142/Tissue Factor: reference of the scale not given here; on CD38: reference of the scale not given here; on CD40: reference of the scale not given here; on CD69: reference of the scale not given here; on CXCL8/IL-8: reference of the scale not given here; on CXCL9/MIG: reference of the scale not given here; on IL-1alpha: reference of the scale not given here; on M-CSF: reference of the scale not given here; on SRB: reference of the scale not given here; on sPGE2: reference of the scale not given here; on sTNF-alpha: reference of the scale not given here
Format: cell-based, human
[1] = HDF3CGF stimulated fibroblasts, 4.12E1 nM
[2] = HDF3CGF stimulated fibroblasts, 4.57E0 nM
[3] = HPNo Huvec+PBMC unstimulated, 1.00E4 nM
[4] = HPNo Huvec+PBMC unstimulated, 1.11E3 nM
[5] = HPNo Huvec+PBMC unstimulated, 1.23E2 nM
[6] = HPNo Huvec+PBMC unstimulated, 1.37E1 nM
[7] = HPNo Huvec+PBMC unstimulated, 3.33E3 nM
[8] = HPNo Huvec+PBMC unstimulated, 3.70E2 nM
[9] = HPNo Huvec+PBMC unstimulated, 4.12E1 nM
[10] = HPNo Huvec+PBMC unstimulated, 4.57E0 nM

`Cc1n[nH]c2ncc(C(=O)N3CCC[C@H]3c3ccc(Cl)cc3)cc12` [CMPD4] showed a CXCL9/MIG [1] of -0.024, a CXCL10/IP-10 [1] of 0.059 and a CXCL11/I-TAC [1] of -0.035. For the same molecule, the “Collagen I” value [1] was 0.021, the “Collagen III” value [1] was 0.082 and the EGFR [1] was -0.094. The M-CSF [1] was -0.046, the MMP-1 [1] was -0.00129 and the PAI-I [1] was 0.033. For the same molecule, the Proliferation_72hr [1] was -0.178, the SRB [1] was 0.010 and the TIMP-1 [1] was -0.070. It also gave a TIMP-2 [1] of 0.099, a CCL2/MCP-1 [2] of -0.020 and a CD54/ICAM-1 [2] of -0.041. It also gave a CD106/VCAM-1 [2] of 0.047, a CXCL8/IL-8 [2] of -0.013 and a CXCL9/MIG [2] of 0.00852. The CXCL10/IP-10 [2] was 0.000432, the CXCL11/I-TAC [2] was -0.0056 and the “Collagen I” value [2] was 0.023. The “Collagen III” value [2] was 0.081, the EGFR [2] was -0.043 and the M-CSF [2] was -0.051. For the same molecule, the MMP-1 [2] was 0.013, the PAI-I [2] was -0.032 and the Proliferation_72hr [2] was -0.119. For the same molecule, the SRB [2] was 0.018, the TIMP-1 [2] was -0.010 and the TIMP-2 [2] was 0.136. The CCL2/MCP-1 [3] was 0.039, the CD38 [3] was 0.081 and the CD40 [3] was -0.033. The CD106/VCAM-1 [3] was 0.342, the CD141/Thrombomodulin [3] was 0.00066 and the “CD142/Tissue Factor” value [3] was 0.063. For the same molecule, the CCL2/MCP-1 [4] was 0.053, the CD38 [4] was -0.040 and the CD40 [4] was -0.130. For the same molecule, the CD106/VCAM-1 [4] was 0.396, the CD141/Thrombomodulin [4] was 0.021 and the “CD142/Tissue Factor” value [4] was 0.064. The CCL2/MCP-1 [5] was 0.040, the CD38 [5] was -0.022 and the CD40 [5] was -0.171. For the same molecule, the CD106/VCAM-1 [5] was 0.307, the CD141/Thrombomodulin [5] was 0.025 and the “CD142/Tissue Factor” value [5] was 0.061. It also gave a CCL2/MCP-1 [6] of 0.053, a CD38 [6] of -0.066 and a CD40 [6] of -0.106. The CD106/VCAM-1 [6] was 0.175, the CD141/Thrombomodulin [6] was 0.022 and the “CD142/Tissue Factor” value [6] was 0.010. For the same molecule, the CCL2/MCP-1 [7] was 0.058, the CD38 [7] was 0.024 and the CD40 [7] was -0.093. The CD106/VCAM-1 [7] was 0.305, the CD141/Thrombomodulin [7] was 0.019 and the “CD142/Tissue Factor” value [7] was 0.022. The CCL2/MCP-1 [8] was 0.274, the CD38 [8] was -0.028 and the CD40 [8] was -0.186. The CD106/VCAM-1 [8] was 0.375, the CD141/Thrombomodulin [8] was 0.045 and the “CD142/Tissue Factor” value [8] was 0.045. For the same molecule, the CCL2/MCP-1 [9] was 0.148, the CD38 [9] was -0.052 and the CD40 [9] was -0.089. For the same molecule, the CD106/VCAM-1 [9] was 0.250, the CD141/Thrombomodulin [9] was 0.031 and the “CD142/Tissue Factor” value [9] was 0.096. The CCL2/MCP-1 [10] was -0.076, the CD38 [10] was -0.060 and the CD40 [10] was -0.075. The CD106/VCAM-1 [10] was 0.144, the CD141/Thrombomodulin [10] was 0.022 and the “CD142/Tissue Factor” value [10] was 0.017. The CD62E/E-Selectin (HPNo, 1.00E4 nM) was 0.080, the CD69 (HPNo, 1.00E4 nM) was 0.150 and the CXCL8/IL-8 (HPNo, 1.00E4 nM) was 0.030. It also gave a CXCL9/MIG (HPNo, 1.00E4 nM) of -0.025, a M-CSF (HPNo, 1.00E4 nM) of 0.075 and an SRB (HPNo, 1.00E4 nM) of -0.053. The sPGE2 (HPNo, 1.00E4 nM) was 0.066, the sTNF-alpha (HPNo, 1.00E4 nM) was -0.036 and the CD62E/E-Selectin (HPNo, 1.11E3 nM) was 0.014. It also gave a CD69 (HPNo, 1.11E3 nM) of 0.063, a CXCL8/IL-8 (HPNo, 1.11E3 nM) of -0.048 and a CXCL9/MIG (HPNo, 1.11E3 nM) of -0.091. It also gave a M-CSF (HPNo, 1.11E3 nM) of 0.074, an SRB (HPNo, 1.11E3 nM) of -0.034 and a sPGE2 (HPNo, 1.11E3 nM) of 0.043. The sTNF-alpha (HPNo, 1.11E3 nM) was -0.019, the CD62E/E-Selectin (HPNo, 1.23E2 nM) was -0.027 and the CD69 (HPNo, 1.23E2 nM) was 0.039. For the same molecule, the CXCL8/IL-8 (HPNo, 1.23E2 nM) was 0.011, the CXCL9/MIG (HPNo, 1.23E2 nM) was -0.025 and the M-CSF (HPNo, 1.23E2 nM) was -0.084. The SRB (HPNo, 1.23E2 nM) was -0.005, the sPGE2 (HPNo, 1.23E2 nM) was 0.030 and the sTNF-alpha (HPNo, 1.23E2 nM) was 0.010. The CD62E/E-Selectin (HPNo, 1.37E1 nM) was -0.035, the CD69 (HPNo, 1.37E1 nM) was -0.005 and the CXCL8/IL-8 (HPNo, 1.37E1 nM) was -0.023. The CXCL9/MIG (HPNo, 1.37E1 nM) was -0.068, the M-CSF (HPNo, 1.37E1 nM) was 0.015 and the SRB (HPNo, 1.37E1 nM) was 0.027. The sPGE2 (HPNo, 1.37E1 nM) was 0.00254, the sTNF-alpha (HPNo, 1.37E1 nM) was 0.00645 and the CD62E/E-Selectin (HPNo, 3.33E3 nM) was -0.020. The CD69 (HPNo, 3.33E3 nM) was 0.040, the CXCL8/IL-8 (HPNo, 3.33E3 nM) was -0.040 and the CXCL9/MIG (HPNo, 3.33E3 nM) was 0.018. The M-CSF (HPNo, 3.33E3 nM) was 0.034, the SRB (HPNo, 3.33E3 nM) was -0.058 and the sPGE2 (HPNo, 3.33E3 nM) was 0.038. The sTNF-alpha (HPNo, 3.33E3 nM) was -0.021, the CD62E/E-Selectin (HPNo, 3.70E2 nM) was 0.026 and the CD69 (HPNo, 3.70E2 nM) was 0.012. The CXCL8/IL-8 (HPNo, 3.70E2 nM) was -0.025, the CXCL9/MIG (HPNo, 3.70E2 nM) was -0.067 and the M-CSF (HPNo, 3.70E2 nM) was -0.063. It also gave an SRB (HPNo, 3.70E2 nM) of -0.017, a sPGE2 (HPNo, 3.70E2 nM) of 0.040 and a sTNF-alpha (HPNo, 3.70E2 nM) of -0.022. It also gave a CD62E/E-Selectin (HPNo, 4.12E1 nM) of -0.00169, a CD69 (HPNo, 4.12E1 nM) of 0.020 and a CXCL8/IL-8 (HPNo, 4.12E1 nM) of 0.023. For the same molecule, the CXCL9/MIG (HPNo, 4.12E1 nM) was -0.041, the M-CSF (HPNo, 4.12E1 nM) was -0.031 and the SRB (HPNo, 4.12E1 nM) was -0.00266. The sPGE2 (HPNo, 4.12E1 nM) was 0.016, the sTNF-alpha (HPNo, 4.12E1 nM) was 0.015 and the CD62E/E-Selectin (HPNo, 4.57E0 nM) was 0.045. It also gave a CD69 (HPNo, 4.57E0 nM) of 0.075, a CXCL8/IL-8 (HPNo, 4.57E0 nM) of 0.031 and a CXCL9/MIG (HPNo, 4.57E0 nM) of -0.000203. For the same molecule, the M-CSF (HPNo, 4.57E0 nM) was 0.012, the SRB (HPNo, 4.57E0 nM) was 0.035 and the sPGE2 (HPNo, 4.57E0 nM) was 0.00462. For the same molecule, the sTNF-alpha (HPNo, 4.57E0 nM) was 0.128, the CCL2/MCP-1 (LPS Huvec+PBMC, 1.00E4 nM) was -0.081 and the CD40 (LPS Huvec+PBMC, 1.00E4 nM) was -0.109. It also gave a CD62E/E-Selectin (LPS Huvec+PBMC, 1.00E4 nM) of 0.010, a CD69 (LPS Huvec+PBMC, 1.00E4 nM) of 0.030 and a CD106/VCAM-1 (LPS Huvec+PBMC, 1.00E4 nM) of 0.079. For the same molecule, the CD141/Thrombomodulin (LPS Huvec+PBMC, 1.00E4 nM) was 0.127, the “CD142/Tissue Factor” value (LPS Huvec+PBMC, 1.00E4 nM) was 0.079 and the CXCL8/IL-8 (LPS Huvec+PBMC, 1.00E4 nM) was -0.169. The IL-1alpha (LPS Huvec+PBMC, 1.00E4 nM) was 0.125, the M-CSF (LPS Huvec+PBMC, 1.00E4 nM) was 0.029 and the SRB (LPS Huvec+PBMC, 1.00E4 nM) was -0.141. For the same molecule, the sPGE2 (LPS Huvec+PBMC, 1.00E4 nM) was 0.164, the sTNF-alpha (LPS Huvec+PBMC, 1.00E4 nM) was -0.051 and the CCL2/MCP-1 (LPS Huvec+PBMC, 1.11E3 nM) was -0.044. For the same molecule, the CD40 (LPS Huvec+PBMC, 1.11E3 nM) was -0.137, the CD62E/E-Selectin (LPS Huvec+PBMC, 1.11E3 nM) was 0.000345 and the CD69 (LPS Huvec+PBMC, 1.11E3 nM) was 0.043. The CD106/VCAM-1 (LPS Huvec+PBMC, 1.11E3 nM) was 0.105, the CD141/Thrombomodulin (LPS Huvec+PBMC, 1.11E3 nM) was 0.090 and the “CD142/Tissue Factor” value (LPS Huvec+PBMC, 1.11E3 nM) was 0.097. For the same molecule, the CXCL8/IL-8 (LPS Huvec+PBMC, 1.11E3 nM) was -0.191.
